test: Absorption/emission maxima of dyes in pH 7.4 PBS; format: physicochemical

Row | SMILES | λabs (nm) (in pH 7.4 PBS) | λem (nm) (in pH 7.4 PBS)
1 | N=c1ccc2c(-c3ccccc3C(=O)O)c3ccc(N)cc3oc-2c1S(=O)(=O)NCCCCCC(=O)ON1C(=O)CCC1=O [Compound No. 9] | 529/ nm | 
2 | N=c1ccc2c(-c3ccccc3C(=O)O)c3ccc(N)c(S(=O)(=O)NCCCCCC(=O)ON4C(=O)CCC4=O)c3oc-2c1 [compound 1] | 488 nm | 516 nm
3 | N=c1ccc2c(-c3ccccc3C(=O)O)c3ccc(N)c(S(=O)(=O)NCCOCCOCCOCCOCCOCCOCCOCCN)c3oc-2c1S(=O)(=O)O [compound 3] | 488 nm | 516 nm
4 | N=c1ccc2c(-c3ccccc3C(=O)O)c3ccc(N)c(S(=O)(=O)NCCOCCOCCOCCOCCOCCOCCOCCOCCC(=O)ON4C(=O)CCC4=O)c3oc-2c1S(=O)(=O)O [compound 4] | 488 nm | 516 nm
5 | COCCOCCNC(=O)c1ccc(-c2c3ccc(=N)c(S(=O)(=O)O)c-3oc3c(S(=O)(=O)NCCOCCOCCOCCOCCC(=O)ON4C(=O)CCC4=O)c(N)ccc23)c(C(=O)O)c1 [compound 5] | 488 nm | 516 nm

— US9006437B2, “Xanthene dyes comprising a sulfonamide group” (Biotium, Inc., priority 2009, dated 2015)
